Measurements taken from article PMC8468039, “Development of New Meridianin/Leucettine-Derived Hybrid Small Molecules as Nanomolar Multi-Kinase Inhibitors with Antitumor Activity” (Biomedicines, 2021).

Columns and labels:
Experiment in all cases: NCI growth inhibition (SRB) assay
Assay type in all cases: cell-based
[1] = test system: 786-0; settings: Homo sapiens, 786-0, Renal Cancer, single dose 10 µM, 48 h, read-out: Percent Growth Inhibition (GI)
Experimental: (§1) The antitumor assay was performed according to the protocol of the Drug Evaluation Branch, NCI, Bethesda. A 48 h drug exposure protocol was adopted, and sulforhodamine B (SRB) assay was utilized to assess the cell growth and viability, as reported earlier.
(§2) The inhibition results of tumor cell growth by the newly synthesized compounds (5a–5g) are described in Table 4. The reported measurements have been performed at the NIH National Cancer Institute, USA by a standardized assay including a panel of 60 different tumor cell lines (Supplementary Data). The following cancer cell types were included in these assays: Leukemia, non-small cell lung cancer, colon cancer, CNS cancer, melanoma, ovarian cancer, renal cancer, prostate, and breast cancer. […] Additionally, the 3,4-dimethoxy substituted compound (5b) also suffered poor activity against the cancer cell lines.

[2] = test system: A498; settings: Homo sapiens, A498, Renal Cancer, single dose 10 µM, 48 h, read-out: Percent Growth Inhibition (GI)
Experimental: as §1, §2

[3] = test system: ACHN; settings: Homo sapiens, Renal Cancer, single dose 10 µM, 48 h, read-out: Percent Growth Inhibition (GI)
Experimental: as §1, §2

[4] = test system: CAKI-1; settings: Homo sapiens, CAKI-1, Renal Cancer, single dose 10 µM, 48 h, read-out: Percent Growth Inhibition (GI)
Experimental: as §1, §2

[5] = test system: CCRF-CEM; settings: Homo sapiens, Leukemia, single dose 10 µM, 48 h, read-out: Percent Growth Inhibition (GI)
Experimental: as §1, §2

[6] = test system: COLO 205; settings: Homo sapiens, COLO 205, Colon Cancer, single dose 10 µM, 48 h, read-out: Percent Growth Inhibition (GI)
Experimental: as §1, §2

[7] = test system: HCT-116; settings: Homo sapiens, HCT-116, Colon Cancer, single dose 10 µM, 48 h, read-out: Percent Growth Inhibition (GI)
Experimental: as §1, §2

[8] = test system: HCT-15; settings: Homo sapiens, HCT-15, Colon Cancer, single dose 10 µM, 48 h, read-out: Percent Growth Inhibition (GI)
Experimental: as §1, §2

[9] = test system: HL-60(TB); settings: Homo sapiens, Leukemia, single dose 10 µM, 48 h, read-out: Percent Growth Inhibition (GI)
Experimental: as §1, §2

[10] = test system: HOP-92; settings: Homo sapiens, HOP-92, Non-Small Cell Lung Cancer, single dose 10 µM, 48 h, read-out: Percent Growth Inhibition (GI)
Experimental: as §1, §2

[11] = test system: HS 578T; settings: Homo sapiens, Breast Cancer, single dose 10 µM, 48 h, read-out: Percent Growth Inhibition (GI)
Experimental: as §1, §2

[12] = test system: HT29; settings: Homo sapiens, HT-29, HT29, Colon Cancer, single dose 10 µM, 48 h, read-out: Percent Growth Inhibition (GI)
Experimental: as §1, §2

[13] = test system: IGROV1; settings: Homo sapiens, IGROV-1, IGROV1, Ovarian Cancer, single dose 10 µM, 48 h, read-out: Percent Growth Inhibition (GI)
Experimental: as §1, §2

[14] = test system: K-562; settings: Homo sapiens, K562, K-562, Leukemia, single dose 10 µM, 48 h, read-out: Percent Growth Inhibition (GI)
Experimental: as §1, §2

[15] = test system: KM12; settings: Homo sapiens, KM12, Colon Cancer, single dose 10 µM, 48 h, read-out: Percent Growth Inhibition (GI)
Experimental: as §1, §2

[16] = test system: MCF7; settings: Homo sapiens, MCF7, Breast Cancer, single dose 10 µM, 48 h, read-out: Percent Growth Inhibition (GI)
Experimental: as §1, §2

[17] = test system: MOLT-4; settings: Homo sapiens, MOLT-4, Leukemia, single dose 10 µM, 48 h, read-out: Percent Growth Inhibition (GI)
Experimental: as §1, §2

[18] = test system: NCI-H522; settings: Homo sapiens, NCI-H522, Non-Small Cell Lung Cancer, single dose 10 µM, 48 h, read-out: Percent Growth Inhibition (GI)
Experimental: as §1, §2

[19] = test system: PC-3; settings: Homo sapiens, PC-3, Prostate Cancer, single dose 10 µM, 48 h, read-out: Percent Growth Inhibition (GI)
Experimental: as §1, §2

[20] = test system: RPMI-8226; settings: Homo sapiens, RPMI-8226, Leukemia, single dose 10 µM, 48 h, read-out: Percent Growth Inhibition (GI)
Experimental: as §1, §2

[21] = test system: RXF 393; settings: Homo sapiens, RXF 393, Renal Cancer, single dose 10 µM, 48 h, read-out: Percent Growth Inhibition (GI)
Experimental: as §1, §2

[22] = test system: SF-539; settings: Homo sapiens, SF-539, CNS Cancer, single dose 10 µM, 48 h, read-out: Percent Growth Inhibition (GI)
Experimental: as §1, §2

[23] = test system: SNB-75; settings: Homo sapiens, SNB-75, CNS Cancer, single dose 10 µM, 48 h, read-out: Percent Growth Inhibition (GI)
Experimental: as §1, §2

[24] = test system: SR; settings: Homo sapiens, Leukemia, single dose 10 µM, 48 h, read-out: Percent Growth Inhibition (GI)
Experimental: as §1, §2

[25] = test system: T-47D; settings: Homo sapiens, T47D, Breast Cancer, single dose 10 µM, 48 h, read-out: Percent Growth Inhibition (GI)
Experimental: as §1, §2

[26] = test system: UACC-62; settings: Homo sapiens, UACC-62, Melanoma, single dose 10 µM, 48 h, read-out: Percent Growth Inhibition (GI)
Experimental: as §1, §2

[27] = test system: UO-31; settings: Homo sapiens, UO-31, Renal Cancer, single dose 10 µM, 48 h, read-out: Percent Growth Inhibition (GI)
Experimental: as §1, §2

Compound	inhibition at 10 µM [1]	inhibition at 10 µM [2]	inhibition at 10 µM [3]	inhibition at 10 µM [4]	inhibition at 10 µM [5]	inhibition at 10 µM [6]	inhibition at 10 µM [7]	inhibition at 10 µM [8]	inhibition at 10 µM [9]	inhibition at 10 µM [10]	inhibition at 10 µM [11]	inhibition at 10 µM [12]	inhibition at 10 µM [13]	inhibition at 10 µM [14]	inhibition at 10 µM [15]	inhibition at 10 µM [16]	inhibition at 10 µM [17]	inhibition at 10 µM [18]	inhibition at 10 µM [19]	inhibition at 10 µM [20]	also measured
COc1ccc(Oc2nc(Nc3ccc(N4CCOCC4)cc3)ncc2NC(=O)c2ccc3c(c2)OCO3)cc1 [5a, N-(4-(4-Methoxyphenoxy)-2-((4-morpholinophenyl)amino)pyrimidin-5-yl)benzo[d][1,3]dioxole-5-carboxamide]	25.3%	22.4%	8.91%	33.9%	14.5%	1.75%	14.6%	26%	16.2%	6.16%	6.26%	28.3%	5.92%	23.4%	12.7%	8.51%	31.1%	22.7%	11.7%	21.8%	inhibition at 10 µM [21]: 50.5%; inhibition at 10 µM [22]: 4.73%; inhibition at 10 µM [23]: -3.98%; inhibition at 10 µM [24]: 37.1%; inhibition at 10 µM [25]: 6.78%; inhibition at 10 µM [26]: 7.38%; inhibition at 10 µM [27]: 36.7%
COc1ccc(Oc2nc(Nc3ccc(N4CCOCC4)cc3)ncc2NC(=O)c2ccc(OC)c(OC)c2)cc1 [5b, 3,4-Dimethoxy-N-(4-(4-methoxyphenoxy)-2-((4-morpholinophenyl)amino)pyrimidin-5-yl)benzamide]	17.6%	-5.56%	-7.28%	20.6%	5.37%	-2.21%	6.01%	12.3%	16.4%	-1.19%	5.09%	-2.93%	3.6%	8.76%	-4.34%	4.24%	19.9%	-3.5%	0.75%	11.1%	inhibition at 10 µM [21]: 20.4%; inhibition at 10 µM [22]: -3.17%; inhibition at 10 µM [23]: -4.29%; inhibition at 10 µM [24]: 18.8%; inhibition at 10 µM [25]: 2.41%; inhibition at 10 µM [26]: 0.1%; inhibition at 10 µM [27]: 33.6%
